Where two headings read alike, the source gives them in different places.
Experiments:
[1] = Concentration of iodine species in water leaving the crystalline iodine generators; type: physicochemical; details: pH 6-8, flow about 200 ml/minute
Method: Artesian water is fed through inlet conduit 8 past shut-off valve 10 through preconditioner 12 at a flow rate of not less than 2 l. per minute and not more than about 50 l. per minute preferably on average about 10 l. per minute at a pH 6-8, […] Main flow water passes through conduit 14 where some of the main flow is diverted to iodine generator assembly 15 through conduit 16 at a flow rate of about 200 ml/minute. The rest of the main flow flows through flow restrictor disk 20 such that an absolute pressure drop of about 2 psi is generated across flow restrictor disk 20. Flow restrictor 20 governs the rate of flow of diverted main flow which ultimately reaches iodine generator assembly 15. The main flow now proceeds through flow switch 22, such that, at a pre-set flow rate exceeding 2 l per minute, the flow switch 22 generates an electrical impulse which is fed to dual action solenoid valve 24. Such an impulse is continuous and causes solenoid valve 24 to open and remain so, as long as the flow rate is maintained above 2 l per minute. The rest of the main flow continues through conduit 14 uninterrupted until iodine liquor is blended back into the main flow at iodine species liquor injection port 44. […]

[2] = tested on: chickens; assay: Safe consumption of residual iodine by chickens
[3] = tested on: bacteria; details: pHs 5-7; cited from earlier work
[4] = tested on: chickens; details: cited from earlier work
[5] = tested on: E. coli fecal streptococci; details: cited from earlier work
[6] = crystalline iodine in water; cited from earlier work
[7] = tested on: E. coli; details: cited from earlier work
[8] = above pH 8, especially in the presence of dissolved iodides; Chang (1); cited from earlier work
[9] = tested on: viruses; details: higher pHs, e.g. 7-10; cited from earlier work

SMILES	concentration of iodine species concentrate ([1]; first iodine generator, about 20° C.)	concentration of resultant (saturated) iodine liquor ([1]; second iodine generator, about 28° C.)	concentration of residual iodine chickens could safely consume [2]	antibacterial action [3]	LD50 [4]	% Kill ([5]; Black et al., 1968, 18 C., contact time 1 min, 0.5 ppm I2)	% Kill ([5]; Ellis et al., 1989, 20 C., contact time 30 min, avg. 4 ppm I2)	solubility in water versus temperature [6]	% Kill [7]	concentration by which E coli is effectively killed [7]	decomposition to iodide and iodate ions [8]	virucidal action [9]
II [iodine]	200-240 ppm	280-320 ppm	about 2 ppm	exhibits antibacterial action	about 625 ppm	99.99%	99.99%	directly proportional to the temperature of the water	99.99%	1-10 ppm	–	–
OI [HOI, hypoiodous acid]	–	–	–	–	–	–	–	–	–	–	decomposes slowly	efficient virucide
